Laboratory results published in the supplement of paper PMC10307832.

How the values were obtained:
Assay in all cases: relative viability (nuclei count vs DMSO), 5 days (fraction); higher = more cells survive
[1] = compound: CN(c1ncccc1CNc1nc(Nc2ccc3c(c2)CC(=O)N3)ncc1C(F)(F)F)S(C)(=O)=O + COc1cccc2cc(-c3nc([C@H]4CC[C@H](C(=O)O)CC4)n4ncnc(N)c34)[nH]c12 [OSI-027] (partner 0.5 µM)
Method in brief: (§1)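 Relative viability divides the nuclei count in treated wells by that in vehicle wells. Lung cancer cell lines were seeded in 1536-well plates, dosed by pin tool the next day, and fixed and stained after 5 days in one step with final 0.05% Triton X-100, 1% formaldehyde and 1 ug/ml Hoechst. Dosing was a single drug or a fixed anchor-drug dose plus five library-drug doses (not always all listed) in √10 steps, and values are medians of duplicate plates imaged at 4×.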

[2] = compound: CN(c1ncccc1CNc1nc(Nc2ccc3c(c2)CC(=O)N3)ncc1C(F)(F)F)S(C)(=O)=O + CCNC(=O)c1noc(-c2cc(C(C)C)c(O)cc2O)c1-c1ccc(CN2CCOCC2)cc1 [Luminespib] (partner 0.01 µM)
Method in brief: as §1

[3] = compound: CN(c1ncccc1CNc1nc(Nc2ccc3c(c2)CC(=O)N3)ncc1C(F)(F)F)S(C)(=O)=O + CS(=O)(=O)CCNCc1ccc(-c2ccc3ncnc(Nc4ccc(OCc5cccc(F)c5)c(Cl)c4)c3c2)o1 [Lapatinib] (partner 2 µM)
Method in brief: as §1

[4] = compound: CN(c1ncccc1CNc1nc(Nc2ccc3c(c2)CC(=O)N3)ncc1C(F)(F)F)S(C)(=O)=O + C[C@]1(O)C[C@@H](c2nc(-c3ccc4ccc(-c5ccccc5)nc4c3)c3c(N)nccn32)C1 [Linsitinib] (partner 1 µM)
Method in brief: as §1

Cell Line | relative viability ([1]; first compound 0.01 µM) | relative viability ([1]; first compound 0.03162 µM) | relative viability ([1]; first compound 0.1 µM) | relative viability ([1]; first compound 0.3162 µM) | relative viability ([1]; first compound 1 µM) | relative viability ([2]; first compound 0.01 µM) | relative viability ([2]; first compound 0.03162 µM) | relative viability ([2]; first compound 0.1 µM) | relative viability ([2]; first compound 0.3162 µM) | relative viability ([2]; first compound 1 µM) | relative viability ([3]; first compound 0.01 µM) | relative viability ([3]; first compound 0.03162 µM) | relative viability ([3]; first compound 0.1 µM) | relative viability ([3]; first compound 0.3162 µM) | relative viability ([3]; first compound 1 µM) | relative viability ([4]; first compound 0.01 µM) | relative viability ([4]; first compound 0.03162 µM) | relative viability ([4]; first compound 0.1 µM) | relative viability ([4]; first compound 0.3162 µM) | relative viability ([4]; first compound 1 µM)
NCI-H838 | 0.492 | 0.413 | 0.396 | 0.394 | 0.413 | 0.409 | 0.255 | 0.242 | 0.31 | 0.263 | 0.958 | 1.23 | 0.981 | 0.753 | 0.638 | 0.981 | 1.07 | 1.02 | 0.83 | 0.745
NCI-H1437 | 0.96 | 0.929 | 0.917 | 0.876 | 0.773 | 1.14 | 1.16 | 1.12 | 0.993 | 0.687 | 0.876 | 0.944 | 0.813 | 0.722 | 0.725 | 0.988 | 1.08 | 1.08 | 0.978 | 0.951
SK-LU-1 | 0.343 | 0.411 | 0.371 | 0.351 | 0.284 | 0.197 | 0.208 | 0.214 | 0.172 | 0.209 | 0.885 | 1.13 | 0.912 | 0.722 | 0.874 | 0.936 | 1.12 | 0.966 | 1.02 | 0.97
BEN | 0.294 | 0.293 | 0.276 | 0.304 | 0.284 | 0.392 | 0.313 | 0.863 | 0.289 | 0.328 | 0.699 | 0.689 | 0.654 | 0.715 | 0.686 | 0.912 | 0.972 | 0.938 | 0.879 | 1.04
LC-2-ad | 0.874 | 0.851 | 0.905 | 0.827 | 0.758 | 1.22 | 1.05 | 0.967 | 0.98 | 0.845 | 1.12 | 0.958 | 1 | 0.864 | 0.756 | 0.85 | 0.784 | 0.862 | 0.786 | 0.847
COR-L23 | 0.782 | 0.722 | 0.681 | 0.756 | 0.642 | 0.622 | 1 | 0.656 | 0.734 | 0.41 | 0.924 | 1.16 | 0.92 | 0.883 | 0.628 | 0.853 | 0.983 | 0.818 | 1.07 | 0.735
RERF-LC-KJ | 0.632 | 0.585 | 0.529 | 0.656 | 0.573 | 1.16 | 1.34 | 1.17 | 1.28 | 1.19 | 0.926 | 0.988 | 0.854 | 0.886 | 0.91 | 0.838 | 0.964 | 0.877 | 0.83 | 0.933
NCI-H1915 | 0.639 | 0.625 | 0.607 | 0.684 | 0.615 | 0.821 | 0.636 | 0.711 | 0.729 | 0.729 | 0.99 | 0.919 | 0.912 | 0.93 | 0.969 | 1.1 | 1.1 | 0.983 | 1.1 | 1.02
NCI-H596 | 0.698 | 0.799 | 0.664 | 0.731 | 0.669 | 0.943 | 1.02 | 0.951 | 1.06 | 0.968 | 1.05 | 1.16 | 0.929 | 0.979 | 1.06 | 1 | 1.12 | 1.02 | 1.05 | 0.896
NCI-H2009 | 0.714 | 0.617 | 0.607 | 0.663 | 0.671 | 1.04 | 1.02 | 1.03 | 0.683 | 0.948 | 1.38 | 0.959 | 0.891 | 0.897 | 0.903 | 1.14 | 1.18 | 1.18 | 1.24 | 1.09
NCI-H2126 | 0.753 | 0.719 | 0.638 | 0.712 | 0.633 | 0.905 | 0.9 | 0.778 | 0.941 | 0.761 | 0.732 | 0.732 | 0.713 | 0.774 | 0.721 | 0.698 | 0.776 | 0.714 | 0.721 | 0.7
LXF-289 | 0.806 | 0.807 | 0.707 | 0.641 | 0.762 | 0.679 | 0.728 | 0.645 | 0.656 | 0.622 | 0.949 | 0.883 | 0.9 | 0.925 | 0.89 | 1.03 | 1.03 | 0.95 | 0.947 | 0.936
NCI-H1563 | 0.78 | 0.79 | 0.771 | 0.788 | 0.753 | 0.538 | 0.528 | 0.53 | 0.482 | 0.547 | 0.906 | 0.839 | 0.857 | 0.942 | 1.07 | 1.16 | 1.23 | 1.31 | 1.07 | 1.06
HCC-44 | 0.575 | 0.491 | 0.496 | – | 0.703 | 1.04 | 1.5 | 1.24 | – | 0.933 | 1.09 | 0.986 | 0.987 | 0.993 | 0.972 | 0.73 | 0.688 | 0.722 | 0.714 | 0.664
PC-14 | 0.931 | 1.05 | 0.895 | 1.13 | 0.809 | 0.233 | 0.15 | 0.192 | 0.176 | 0.236 | 0.366 | 0.373 | 0.292 | 0.323 | 0.33 | 0.976 | 1 | 1.06 | 0.961 | 1.01
HOP-62 | 0.956 | 0.804 | 0.743 | 0.825 | 0.731 | 0.969 | 0.933 | 0.949 | 0.932 | 0.699 | 1.06 | 1.1 | 1.02 | 1.09 | 0.903 | 0.843 | 1.09 | 1.06 | 0.786 | 0.933
